Like-named read-outs stand apart in the source and are kept apart here.
What was measured:
Assay in all cases: CRE-luciferase assay of odorant receptor activation (Dual-Glo, Hana3A cells, RTP1S), dose-response EC50
Format in all cases: cell-based
[1] = target: T1, human odorant receptors (ORs) (Homo sapiens, UniProt Q8NG81); details: receptor OR2M7
T1 construct: OR open reading frames were amplified from genomic DNA; expressed in transfected cells; host or cells: Hana3A cells, co-transfected with RTP1S, CRE-luciferase and pRL-SV40
T1 sequence (Q8NG81 1-312): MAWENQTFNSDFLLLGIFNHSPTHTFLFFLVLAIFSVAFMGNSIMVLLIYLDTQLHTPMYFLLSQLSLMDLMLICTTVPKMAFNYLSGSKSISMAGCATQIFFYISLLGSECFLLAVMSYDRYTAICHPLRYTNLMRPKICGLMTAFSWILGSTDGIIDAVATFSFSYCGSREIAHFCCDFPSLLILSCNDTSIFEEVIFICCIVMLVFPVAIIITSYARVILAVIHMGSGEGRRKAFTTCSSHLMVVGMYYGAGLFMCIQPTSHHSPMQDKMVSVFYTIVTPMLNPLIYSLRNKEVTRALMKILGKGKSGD
In short: (§1)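 Hana3A cells were co-transfected with Rho-tagged OR, RTP1S, CRE-luciferase and pRL-SV40, then exposed to odorant in CD293 medium for 4 hrs at 37° C. Firefly luminescence was divided by Renilla and normalized as (LN−Lmin)/(Lmax−Lmin) per plate set. Each dose was tested at least three times, and EC50 came from sigmoidal fits.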

[2] = target: T2, human odorant receptors (ORs) (Homo sapiens, UniProt Q8NGJ5)
T2 construct: OR open reading frames were amplified from genomic DNA; expressed in transfected cells; host or cells: Hana3A cells, co-transfected with RTP1S, CRE-luciferase and pRL-SV40
T2 sequence (Q8NGJ5 1-315): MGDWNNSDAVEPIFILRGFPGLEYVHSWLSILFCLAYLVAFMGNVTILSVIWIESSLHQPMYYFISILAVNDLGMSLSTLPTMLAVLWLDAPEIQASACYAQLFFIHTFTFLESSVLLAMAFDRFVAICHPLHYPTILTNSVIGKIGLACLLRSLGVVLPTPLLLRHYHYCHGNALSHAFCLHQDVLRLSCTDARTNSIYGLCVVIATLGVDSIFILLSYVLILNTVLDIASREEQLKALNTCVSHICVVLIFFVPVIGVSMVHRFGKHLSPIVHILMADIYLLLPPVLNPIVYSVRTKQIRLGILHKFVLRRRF
In short: as §1

[3] = target: T3, human odorant receptors (ORs) (Homo sapiens, UniProt O95371); details: receptor OR2C1; read-out: log EC50 of odorant at OR2C1 (0 = no response) (converted)
T3 construct: OR open reading frames were amplified from genomic DNA; expressed in transfected cells; host or cells: Hana3A cells, co-transfected with RTP1S, CRE-luciferase and pRL-SV40
T3 sequence (O95371 1-312): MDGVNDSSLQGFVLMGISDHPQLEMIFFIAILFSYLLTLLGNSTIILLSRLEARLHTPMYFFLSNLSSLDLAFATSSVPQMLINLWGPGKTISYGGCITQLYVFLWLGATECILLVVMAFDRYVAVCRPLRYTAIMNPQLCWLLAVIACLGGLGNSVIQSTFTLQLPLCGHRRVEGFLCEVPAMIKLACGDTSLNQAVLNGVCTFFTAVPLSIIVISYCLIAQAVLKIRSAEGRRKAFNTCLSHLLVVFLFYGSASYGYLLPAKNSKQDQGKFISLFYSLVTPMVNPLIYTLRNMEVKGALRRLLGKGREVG
In short: as §1

[4] = target: T4, human odorant receptors (ORs) (Homo sapiens, UniProt Q8TCB6)
T4 construct: OR open reading frames were amplified from genomic DNA; expressed in transfected cells; host or cells: Hana3A cells, co-transfected with RTP1S, CRE-luciferase and pRL-SV40
T4 sequence (Q8TCB6 1-318): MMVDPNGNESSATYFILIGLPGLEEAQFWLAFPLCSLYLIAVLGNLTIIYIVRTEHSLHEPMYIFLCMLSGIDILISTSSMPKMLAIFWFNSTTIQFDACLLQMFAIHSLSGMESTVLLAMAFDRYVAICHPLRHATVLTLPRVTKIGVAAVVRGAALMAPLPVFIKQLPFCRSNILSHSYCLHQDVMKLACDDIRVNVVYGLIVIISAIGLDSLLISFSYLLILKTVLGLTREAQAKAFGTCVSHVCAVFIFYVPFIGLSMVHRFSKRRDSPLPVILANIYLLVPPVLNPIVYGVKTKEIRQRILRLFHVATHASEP
In short: as §1

CC(C)=CCCC(C)CCO (single isomer, unassigned; (-)) [(−)-b-C ? inedol]
EC50 ([1]; 0 = no response, read-out: log EC50, OR2M7 (converted)): 140 µM

C=CCOC(=O)Cc1ccccc1 [Allyl phenylacetate]
EC50 [2]: 67.6 µM

CC(C)=CCC/C(C)=C/CO [Getaniol]
EC50 ([1]; read-out: log EC50 (Table 4 value), OR2M7 (converted)): 627 µM

CCCCCCCCCS [Nonanethiol]
EC50 [3]: 128 µM

CCCCCCCCC(=O)O [Nonanoic acid]
EC50 [4]: 246 µM

CCCCCCCCS [Octanethiol]
EC50 [3]: 88.9 µM
